{
  "source": "paper PMC11819603",
  "about": "“Development of a reliable, sensitive, and convenient assay for the discovery of new eIF5A hypusination inhibitors” (PLOS ONE, 2025)",
  "key": {"[1]": {"test_system": "eIF5A hypusination in HT29 cells", "assay": "eIF5A hypusination in intact HT29 cells, Western blot", "assay_type": "cell-based", "settings": "Homo sapiens, HT-29, 24 h", "experimental": "We tested the ability of the GC7 analogs to inhibit hypusination in intact cells. MCF-7 cells (Fig 5B), a classical model of breast cancer cell line, and HT29 cells (Fig 5C), a cell model of colorectal cancer, were treated with 40 μM of GC7, 1, 2, 3, and 4 for 24h. Cells were lysed and analyzed by Western blot. As observed, none of the molecules modified eIF5A expression. […] GC7 analogs inhibited hypusination from 35 to 55%.\nThe human breast cancer cell line MCF7 (HTB-22 ATCC) and colorectal adenocarcinoma HT29 (HTB-38 ATCC) were cultured in DMEM (Gibco) supplemented with 10% FBS (Dutscher), 10 U/mL penicillin, and 10 mg/mL streptomycin. […]\nAfter treatment, cells were washed with ice-cold PBS and lysed in RIPA Buffer (50 mM Tris pH 7.5, 150 mM NaCl, 0.1% SDS, 0.5% Na Deoxycholate, 5 mM NaF, 2.5 mM Na4P2O7, 1% NP4O) containing a protease inhibitor cocktail (complete Roche). […] The membranes were probed with the appropriate primary antibody that was detected by horseradish peroxidase-conjugated secondary antibody (Jackson Immunoresearch) and visualized by chemiluminescence (ECL Amersham RPN 3244) using a Fuji LAS-4000 imager. ImageJ® software was used to quantify band intensity and the ratios of proteins of interest were normalized to a loading control. […]"}, "DHPS [2]": {"biological_target": "T1, DHPS (Homo sapiens, UniProt P49366)", "T1 construct": "host or cells: E. coli BL21 (DE3)", "T1 sequence (P49366 1-369)": "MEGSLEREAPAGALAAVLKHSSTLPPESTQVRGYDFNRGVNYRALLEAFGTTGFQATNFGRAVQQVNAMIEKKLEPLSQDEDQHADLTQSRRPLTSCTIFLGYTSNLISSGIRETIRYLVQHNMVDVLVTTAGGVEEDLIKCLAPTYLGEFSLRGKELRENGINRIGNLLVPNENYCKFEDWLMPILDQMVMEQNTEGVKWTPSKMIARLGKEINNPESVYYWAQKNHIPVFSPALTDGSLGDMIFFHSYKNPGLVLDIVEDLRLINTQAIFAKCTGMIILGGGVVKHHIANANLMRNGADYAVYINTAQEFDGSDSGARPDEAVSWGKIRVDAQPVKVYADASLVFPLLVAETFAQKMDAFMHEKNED", "assay": "Hyp'Assay: cell-free eIF5A hypusination in 96-well plates (recombinant eIF5A, DHPS, DOHH; anti-hypusine antibody Hpu24), substance present in the DHPS step", "assay_type": "biochemical"}, "DHPS [3]": {"biological_target": "T1, DHPS", "assay": "Hyp'Assay without DOHH: deoxyhypusination of eIF5A revealed with Hpu98 antibody", "assay_type": "biochemical", "settings": "5 μM spermidine", "source_text": "To address this issue, we compared the ability of GC7 to inhibit DHPS or DOHH by adding GC7 during the first step of the Hyp’Assay; when DHPS mediates the deoxyhypusination reaction (Fig 2A), or only during the second step, when DOHH hydroxylate deoxyhypusinated eIF5A. […] This confirms the specificity of GC7 towards DHPS. When finding new hypusination inhibitors adding them during the first or the second step of the Hyp’Assay will allow us to determine if the inhibition affects DHPS or DOHH. Another way to discriminate between DHPS or DOHH inhibitors would be to use Hpu98, an antibody that recognized both hypusinated and deoxyhypusinated eIF5A, instead of Hpu24, which is specific for hypusinated eIF5A [18]. […] We performed a new Hyp’Assay by omitting DOHH in the reaction mix and using the Hpu98 antibody. First, we performed a dose response experiment with spermidine at pH: 8.0 and 9.0 (Fig 3E). The Hyp’Assay allows the detection of deoxyhypusinated eIF5A in a spermidine-dependent manner. Under these conditions, deoxyhypusination was equally efficient at both pH tested. […] We also tested the ability of GC7 (Fig 3F) and CPX or EDTA (Fig 3G) to inhibit DHPS. […] This provided us with another method to distinguish between DHPS and DOHH inhibitors.\nThe cell-free reaction described in 4.4 is performed in triplicates in a 96-wells plate (MaxiSorp, ThermoFisher) in the presence of 3 μg of eIF5A, 2 μg of DHPS, and 2 μg of DOHH by well. The reaction product, hypusinated eIF5A, is adsorbed onto the plate overnight at 4°C. The plate is washed (100 μL/well) thrice with PBS-T (PBS– 0.05% Tween20), then saturated with 1% non-fat dry milk in PBS-T for 2 h at room temperature. The plate is washed thrice with PBS-T and incubated overnight at 4°C with the anti-hypusine antibody (1:2000 in saturation buffer, 50 μL/well). The next day and after 5 washes with PBS-T, HRP-coupled anti-rabbit secondary antibody diluted 1:5000 in saturation buffer (50 μL/well) is added for 2 h at room temperature."}},
  "data": [
    {"compound": "N=C(N)NCCCCCCCN", "note": "[GC7, N1-guanyl-1,7-diaminoheptane]", "values": [
      {"measurement": "inhibition at 40 µM", "setting": "[1]", "value": 80, "unit": "%"},
      {"measurement": "concentration at which inhibition was complete", "setting": "DHPS [2]; 5 μM spermidine", "value": 1, "unit": "µM"},
      {"measurement": "concentration at which inhibition was detectable", "setting": "DHPS [2]; 5 μM spermidine", "value": 0.01, "unit": "µM"},
      {"measurement": "concentration at which the inhibitory effect began", "setting": "DHPS [2]; 100 μM spermidine", "value": 0.1, "unit": "µM"},
      {"measurement": "concentration of maximal inhibitory effect", "setting": "DHPS [2]; 100 μM spermidine", "value": 10, "unit": "µM"},
      {"measurement": "Relative hypusination of eIF5A, Mean (quantification from Figure 3D)", "setting": "DHPS [2]; GC7 added during the DHPS step, 5 μM spermidine, CTRL 100,0", "value": "4,227 a.u"},
      {"measurement": "hypusination signal, Mean (quantification from Figure 3A)", "setting": "DHPS [2]; Spermidine 5 µM, GC7 1 (µM)", "value": 54.02},
      {"measurement": "hypusination signal, Mean (quantification from Figure 3A)", "setting": "DHPS [2]; Spermidine 5 µM, GC7 10 (µM)", "value": 19.57},
      {"measurement": "hypusination signal, Mean (quantification from Figure 3A)", "setting": "DHPS [2]; Spermidine 5 µM, GC7 100 (µM)", "value": 16.79},
      {"measurement": "hypusination signal, Mean (quantification from Figure 3A)", "setting": "DHPS [2]; Spermidine 5 µM, GC7 1000 (µM)", "value": 0.5077},
      {"measurement": "hypusination signal, Mean (quantification from Figure 3A)", "setting": "DHPS [2]; Spermidine 5 µM, GC7 10000 (µM)", "value": 0},
      {"measurement": "hypusination signal, Mean (quantification from Figure 3A)", "setting": "DHPS [2]; Spermidine 100 µM, GC7 1 (µM)", "value": 100},
      {"measurement": "hypusination signal, Mean (quantification from Figure 3A)", "setting": "DHPS [2]; Spermidine 100 µM, GC7 10 (µM)", "value": 95.15},
      {"measurement": "hypusination signal, Mean (quantification from Figure 3A)", "setting": "DHPS [2]; Spermidine 100 µM, GC7 100 (µM)", "value": 91.8},
      {"measurement": "hypusination signal, Mean (quantification from Figure 3A)", "setting": "DHPS [2]; Spermidine 100 µM, GC7 1000 (µM)", "value": 51.9},
      {"measurement": "hypusination signal, Mean (quantification from Figure 3A)", "setting": "DHPS [2]; Spermidine 100 µM, GC7 10000 (µM)", "value": 0.07615},
      {"measurement": "effect on hypusination", "setting": "DHPS [2]; added during the first step (DHPS), 5 μM spermidine", "value": "total inhibition of hypusination"},
      {"measurement": "inhibition at 1 µM", "setting": "DHPS [2]; at 1 µM, 5 µM spermidine (reviewer's reading of Fig. 3)", "value": "~95", "unit": "%"},
      {"measurement": "ability to inhibit deoxyhypusination", "setting": "DHPS [3]", "value": "efficient in inhibiting deoxyhypusination"},
      {"measurement": "Relative deoxyhypusination of eIF5A, Mean (quantification from Figure 3F, 3G)", "setting": "DHPS [3]; CTRL 100,0, inhibitor concentration not given", "value": "7,531 a.u"}
    ]}
  ]
}
